{
  "source": "paper PMC5675747",
  "about": "(The Journal of steroid biochemistry and molecular biology, 2017)",
  "molecules": {"B1": {"name": "zfSult3st4 (Danio rerio) (protein)", "chain": "MAQEECKMISDKLLKYKETVLTLEPSYDITPEYIDSIQDFETRDDDVFVVTFPKSGTVWTQRIITLIYEEDFPEKAKQITFEQMPWIEYRKKGKDYSTRPSPRLFCSHLLEPLMPKTLKRKGKVIYVMRNPKDVMVSYFHFSKKMKNLDSAKSYDEVLENFLTGCMVGGSWFDHVKGWVTSKDKYNILILTYEEMIKDLRSVIVKICEFVGKNLSDAAIDKVVERATFKQMKVDPVANYESLPVDITDQPKGAFMRKGTVGDWRNSLTMAQSECVDGALEERMKDVPLNLVWDITELRG"}, "B2": {"name": "hSULT2A1 (Homo sapiens) (protein)", "chain": "MSDDFLWFEGIAFPTMGFRSETLRKVRDEFVIRDEDVIILTYPKSGTNWLAEILCLMHSKGDAKWIQSVPIWERSPWVESEIGYTALSETESPRLFSSHLPIQLFPKSFFSSKAKVIYLMRNPRDVLVSGYFFWKNMKFIKKPKSWEEYFEWFCQGTVLYGSWFDHIHGWMPMREEKNFLLLSYEELKQDTGRTIEKICQFLGKTLEPEELNLILKNSSFQSMKENKMSNYSLLSVDYVVDKAQLLRKGVSGDWKNHFTVAQAEDFDKLFQEKMADLPRELFPWE"}},
  "key": {"zfSult2st2": {"biological_target": "T1, zfSult2st2 (Danio rerio, UniProt A0EXC5)", "T1 sequence (A0EXC5 1-287)": "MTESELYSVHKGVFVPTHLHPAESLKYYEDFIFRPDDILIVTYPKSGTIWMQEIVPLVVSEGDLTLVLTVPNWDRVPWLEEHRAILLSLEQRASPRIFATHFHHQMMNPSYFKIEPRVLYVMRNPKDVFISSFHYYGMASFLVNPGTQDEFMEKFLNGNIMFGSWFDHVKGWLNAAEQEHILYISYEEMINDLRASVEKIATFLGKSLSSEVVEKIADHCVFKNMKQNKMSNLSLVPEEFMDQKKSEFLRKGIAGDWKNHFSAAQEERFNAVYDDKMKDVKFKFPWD", "assay": "[…]PAPS sulfation assay, TLC and scintillation counting", "assay_type": "biochemical", "conditions": "14 μM PAPS, 50 mM Mops pH 7.0, 1 mM DTT, 28 °C; substrate inhibition constant"}, "zfSult3st4": {"biological_target": "T2, zfSult3st4 (Danio rerio, UniProt A0A8M1P203)", "T2 sequence (A0A8M1P203 1-299)": "B1 chain", "assay": "[…]PAPS sulfation assay, TLC and scintillation counting", "assay_type": "biochemical", "conditions": "14 μM PAPS, 50 mM Mops pH 7.0, 1 mM DTT, 28 °C; substrate inhibition constant"}, "zfSult2st3": {"biological_target": "T3, zfSult2st3 (Danio rerio, UniProt A0ACM8QCA3)", "T3 sequence (A0ACM8QCA3 1-288)": "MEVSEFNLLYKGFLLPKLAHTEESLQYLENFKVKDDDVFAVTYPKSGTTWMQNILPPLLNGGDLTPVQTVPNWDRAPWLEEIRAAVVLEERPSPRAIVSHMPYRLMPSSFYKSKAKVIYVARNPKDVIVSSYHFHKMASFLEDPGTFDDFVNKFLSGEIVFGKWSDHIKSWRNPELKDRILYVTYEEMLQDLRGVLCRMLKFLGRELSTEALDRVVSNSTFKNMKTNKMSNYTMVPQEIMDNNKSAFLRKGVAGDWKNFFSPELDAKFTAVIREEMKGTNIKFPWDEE", "assay": "[…]PAPS sulfation assay, TLC and scintillation counting", "assay_type": "biochemical", "conditions": "14 μM PAPS, 50 mM Mops pH 7.0, 1 mM DTT, 28 °C; substrate inhibition constant"}, "hSULT2A1": {"biological_target": "T4, hSULT2A1 (Homo sapiens, UniProt Q06520)", "T4 sequence (Q06520 1-285)": "B2 chain", "assay": "[…]PAPS sulfation assay, TLC and scintillation counting", "assay_type": "biochemical", "conditions": "14 μM PAPS, 50 mM Mops pH 7.0, 1 mM DTT, 37 °C; substrate inhibition constant"}, "purified protein [1]": {"substrate": "C[C@H](CCCC(CO)CO)[C@H]1CC[C@H]2[C@@H]3[C@H](O)C[C@@H]4C[C@H](O)CC[C@]4(C)[C@H]3C[C@H](O)[C@]12C", "assay": "purified protein", "assay_type": "biochemical, Danio rerio", "conditions": "14 μM PAPS, 50 mM Mops pH 7.0, 1 mM DTT, 28 °C"}, "purified protein [2]": {"substrate": "C[C@H](CCCC(CO)CO)[C@H]1CC[C@H]2[C@@H]3[C@H](O)C[C@@H]4C[C@H](O)CC[C@]4(C)[C@H]3C[C@H](O)[C@]12C", "assay": "purified protein", "assay_type": "biochemical, Homo sapiens", "conditions": "14 μM PAPS, 50 mM Mops pH 7.0, 1 mM DTT, 37 °C"}},
  "data": [
    {"molecule": "C[C@H](CCCC(CO)CO)[C@H]1CC[C@H]2[C@@H]3[C@H](O)C[C@H]4C[C@H](O)CC[C@]4(C)[C@H]3C[C@H](O)[C@]12C", "note": "[5α-cyprinol, 3α,7α,12α,26,27-pentahydroxy-5α-cholestane]", "values": [
      {"measurement": "Ki", "setting": "zfSult2st2", "result": "27.43 ± 11.16", "unit": "µM"},
      {"measurement": "Ki", "setting": "zfSult3st4", "result": "164.9 ± 22.2", "unit": "µM"},
      {"measurement": "Ki", "setting": "zfSult2st3", "result": "373.9 ± 38.0", "unit": "µM"},
      {"measurement": "Ki", "setting": "hSULT2A1", "result": "210.8 ± 19.9", "unit": "µM"}
    ]},
    {"molecule": "C[C@H](CCCC(CO)CO)[C@H]1CC[C@H]2[C@@H]3[C@H](O)C[C@@H]4C[C@H](O)CC[C@]4(C)[C@H]3C[C@H](O)[C@]12C", "note": "[5β-cyprinol]", "values": [
      {"measurement": "Ki", "setting": "zfSult2st2", "result": "58.15 ± 5.74", "unit": "µM"},
      {"measurement": "Ki", "setting": "zfSult2st3", "result": "39.78 ± 6.70", "unit": "µM"}
    ]},
    {"molecule": "B1", "values": [
      {"measurement": "Km", "setting": "purified protein [1]", "result": "98.9 ± 2.89", "unit": "µM"},
      {"measurement": "Vmax", "setting": "purified protein [1]", "result": 0.00397, "unit": "µmol/min/mg"}
    ]},
    {"molecule": "B2", "values": [
      {"measurement": "Km", "setting": "purified protein [2]", "result": "221.3 ± 23.1", "unit": "µM"},
      {"measurement": "Vmax", "setting": "purified protein [2]", "result": 0.00224, "unit": "µmol/min/mg"}
    ]}
  ]
}
